Results reported in US20260226552A1, “MUC5AC IN PANCREATIC DUCTAL ADENOCARCINOMA” (Ohio State Innovation Foundation, priority 2023, published 2026).
Marks after values point to notes of the source that are not given here.

Tests used:
[1] = test system: pancreatic cell lines (PCLs); assay: Chemosensitivity of pancreatic cell lines by MUC5AC expression level; type: cell-based
Description: It was also shown that MUC5AC detected by CLH2 (immature) and 45M1 (mature) mabs are differently localized (Ho, J. J., et al., Secretion of MUC5AC mucin from pancreatic cancer cells in response to forskolin and VIP. Biochem Biophys Res Commun, 2002. 294(3): p. 680-6). NPC-1C-specific (immunogenic) MUC5AC has a distribution similar to mature MUC5AC. It can therefore be concluded that there are differences in chemosensitivities MUC5AC^negative MUC5AC^low to moderate and MUC5AC^high pancreatic cell lines (PCLs).
Thus, adding localization and other isoform data to the level of mature MUC5AC expression gives a better predictive signal in PDA patients.

MUC5AC [2] = assay: Serum MUC5AC by ELISA kit in PDA patients; type: in vivo, human; details: recurrent group, adjuvant therapy
Description: One hundred resected PDA specimens and serum samples were collected. 43 patients had neoadjuvant therapy (NAT), and 57 had upfront surgery (UpS). The cellular expression of MUC5AC was studied in the resected formalin-fixed paraffin-embedded tissue through immunohistochemistry using 45M1 and CLH2 antibodies. The expression levels in the tissue were estimated using H-score intensity (0-3)X % of tumor cells with expression with results ranging from 0-300. The presence or absence of extracellular (EC) expression was also studied. Below is a summary of some significant findings. • CLH2-MUC5AC was identified in the perinuclear region or cytoplasm, while 45M1-MUC5AC was identified in apical and EC regions. […] Human serum MUC5AC levels were analyzed using the Human MUC5AC ELISA Kit (Catalog number NBP2-76703, Novus Biologicals, Centennial, CO). 45M1 and CLH2 could not be detected in the serum samples, but the commercially available kits allowed detection and measuring of MUC5AC. […]
There was an analysis of patients with serum MUC5AC levels available post-NAT […] to understand if serum MuC5AC levels help predict treatment response. […] The correlation between tissue (45M1 and CLH2) and serum MUC5AC levels was analyzed as the former correlated with treatment response in NAT-group.

MUC5AC [3] = assay: Immunohistochemistry of MUC5AC glycoforms (45M1, CLH2) in resected PDA tissue, H-score and extracellular detection; type: in vivo, human; details: neoadjuvant therapy group by chemotherapy
Method: Immunohistochemistry. […] The assay methodology development, optimization, and validation mirrors any new clinical immunohistochemical assay development in the laboratory. […] Briefly, the assay is performed on automated Stainer's (Leica Bond or Dako) in the laboratory. Appropriate positive (e.g., normal stomach) and negative tissue (e.g. normal pancreas) controls are used to optimize and validate the assay. The best pretreatment and antibody detection systems are determined using the manufacturer's antibody datasheet, and titration of at least three antibody dilutions are performed. If there is no recommendation from the manufacturer, the antibody is tested by trying the different lab pretreatment and detection system methods in order to determine the best method. Antibody dilutions may need to be optimized, depending on the results of initial testing. A pathologist reviews the slides from the validation run to determine the optimal methodology. Assessment of MUC5AC immunohistochemical staining. The immunohistochemical-labelled whole tumor section slides is reviewed by a pathologist with expertise in pancreaticobiliary pathology. The slides are reviewed for the expression patterns (Cytoplasmic vs Membranous) and scored for the extent (% of tumor stain) and intensity of staining (Negative 0, mild 1+, moderate 2+ and strong +3). A semiquantitative approach of H-score is assigned to tumor samples for statistical analysis. […] Tumor with scores <10 are considered as negative for expression. […] One hundred resected PDA specimens and serum samples were collected. 43 patients had neoadjuvant therapy (NAT), and 57 had upfront surgery (UpS). […] The presence or absence of extracellular (EC) expression was also studied. […] NR vs. […] Five of them were heavily treated with systemic therapy. […] Serum samples for the patients were collected at different time points of the management. This allowed for studying the relationship between serum MUC5AC with the known pancreatic cancer tumor marker CA 19-9 and MUC5AC's role in predicting treatment response. […] PR vs. […] The CA 19-9 levels followed the same trend (nCR vs. PR vs. NR=129 vs. 452 vs. 958, p>0.05). […] This can explain larger tumors in these groups. […] It should be noted that CA 19-9 levels were very high but not statistically significant in lower MUC5AC groups. One key takeaway from this is that PFS is not only driven by the pathological response in NAT group. Clinically, this may translate into guiding the physicians about the timing of surgery while on systemic therapy. […] OR vs. NR, 2.64 vs. 0.9, p=0.05). • There were 17 patients within 8 weeks of surgery, 9 within 5 weeks, and 8 from 5-8 weeks. The mean MUC5AC was lower than the ones noted in the pretreatment/presurgery population (1.2 ng/mL). […] The pathological response noted on the resected sample in NAT-group reported from the scale of 1-3 based on the treatment response. For practical purposes, patients with extensive tumors with no evident tumor regression or 3 were designated as the no-response (NR) group. Patients with residual tumors with evidence of regression or 2 and near complete response or single cells or small group of cancer cells or 1 were considered as partial-response (PR) or near complete-response (nCR), respectively.

[4] = compared with MUC5AC low to moderate PCLs
[5] = compared with MUC5AC negative PCLs

SMILES	chemosensitivity of MUC5AC high PCLs [1, 4]	chemosensitivity of MUC5AC high PCLs [1, 5]	Serum MUC5AC (MUC5AC [2]; after chemotherapy)	Serum MUC5AC (MUC5AC [2]; before chemotherapy) [ng/mL]	45M1 H-score mean (MUC5AC [3])	45M1 H-score median (range) (MUC5AC [3])	45M1 detection rate (MUC5AC [3]) [%]	CLH2 H-score mean (MUC5AC [3])	CLH2 H-score median (range) (MUC5AC [3])	CLH2 detection rate (MUC5AC [3]) [%]	EC-45M1 detection rate (MUC5AC [3]) [%]
Nc1ccn([C@@H]2O[C@H](CO)[C@@H](O)C2(F)F)c(=O)n1 [Gem, gemcitabine]	resistant	resistant	5.3* ng/mL	1.1	116	150 (10-210)	100	150)/90	120	100	60
N.N.[Cl][Pt][Cl] [Cisplatin, cisplatin]	more sensitive	more sensitive									
O=c1[nH]cc(F)c(=O)[nH]1 [5FU, fluorouracil]	more sensitive	more sensitive			130	105 (0-270)	89	126	95 (0-270)	89	58
CCc1c2c(nc3ccc(OC(=O)N4CCC(N5CCCCC5)CC4)cc13)-c1cc3c(c(=O)n1C2)COC(=O)[C@]3(O)CC [Irinotecan, irinotecan]		more sensitive									
O=C1[O][Pt]2([NH][C@@H]3CCCC[C@H]3[NH]2)[O]C1=O [Oxaliplatin, oxaliplatin]	more sensitive	resistant									
